The data set is described as follows: Pharmacokinetics of THC and CBD after oral MC formulation (Example 3). As to conditions: for Tmax / AUC(0-t) / Cmax / half-life: human, plasma; for dose response of Cmax and AUC0-8 with increasing doses: oral doses 2.5 to 12.5 mg.
[1] abbreviates: high fat meal 30 minutes before 2.5 mg dose versus fasted.
Setting [2] is: oral, delay of Tmax by high fat meal, high fat meal 30 minutes before 2.5 mg dose versus fasted.
The mark [3] stands for this setting: po, AUC0-8, 2.5 mg: single oral dose 2.5 mg THC/2.5 mg CBD after 12 hour fast (day 1).
Setting [4] is: po, AUC0-8, 5 mg: single oral dose 5 mg THC/5 mg CBD.
Setting [5] is: po, AUC0-8, 7.5 mg: single oral dose 7.5 mg THC/7.5 mg CBD.
Where [6] appears, read: po, 2.5 mg fed: single oral dose 2.5 mg THC/2.5 mg CBD 30 minutes after high fat meal (day 8).
The mark [7] stands for this setting: po, 2.5 mg: single oral dose 2.5 mg THC/2.5 mg CBD after 12 hour fast (day 1).
Where [8] appears, read: po, 5 mg: single oral dose 5 mg THC/5 mg CBD.
Setting [9] is: po, 7.5 mg: single oral dose 7.5 mg THC/7.5 mg CBD.
Where [10] appears, read: po, Tmax, 2.5 mg fed: single oral dose 2.5 mg THC/2.5 mg CBD 30 minutes after high fat meal (day 8).
Where [11] appears, read: po, Tmax, 2.5 mg: single oral dose 2.5 mg THC/2.5 mg CBD after 12 hour fast (day 1).
Setting [12] is: po, Tmax, 5 mg: single oral dose 5 mg THC/5 mg CBD.
Where [13] appears, read: po, Tmax, 7.5 mg: single oral dose 7.5 mg THC/7.5 mg CBD.
The mark [14] stands for this setting: po, t½ (did not change with increasing dose), across doses 2.5 to 12.5 mg.
[15] abbreviates: po, t½, 2.5 mg fed: single oral dose 2.5 mg THC/2.5 mg CBD 30 minutes after high fat meal (day 8).
[16] abbreviates: po, t½, 2.5 mg: single oral dose 2.5 mg THC/2.5 mg CBD after 12 hour fast (day 1).
Where [17] appears, read: po, t½, 5 mg: single oral dose 5 mg THC/5 mg CBD.
The mark [18] stands for this setting: po, t½, 7.5 mg: single oral dose 7.5 mg THC/7.5 mg CBD.

As for `C=C(C)[C@@H]1CCC(C)=C[C@H]1c1c(O)cc(CCCCC)cc1O` [CBD, cannabidiol], the “dose response of Cmax and AUC0-8 with increasing doses” value is recorded as “linear dose response relationship”. For the same molecule, the “effect of high fat meal on Cmax and AUC0-8” value under setting [1] is on record as “significantly increased”. The time to peak (Tmax) under setting [2] is at least 1 h. Besides, the AUC(0-t) (po, AUC0-8, 2.5 mg fed: single oral dose 2.5 mg THC/2.5 mg CBD 30 minutes after high fat meal (day 8)) amounted to 3.67 ng·h/mL. The same molecule had an AUC(0-t) under setting [3] of 1.76 ± 0.84 ng·h/mL. Also, the exposure AUC(0-t) under setting [4] is 5.09 ± 1.8 ng·h/mL. Under setting [5], this molecule had an AUC(0-t) of 7.47 ± 2.95 ng·h/mL. Under setting [6], this molecule displayed a Cmax of 0.99 ± 0.45 ng/mL. For the same molecule, the highest level under setting [7] (Cmax) was 0.62 ± 0.19 ng/mL. This molecule registered a Cmax under setting [8] of 1.51 ± 0.55 ng/mL. For the same molecule, the peak level under setting [9] (Cmax) was 2.26 ± 0.95 ng/mL. In addition, the time of peak concentration (Tmax) under setting [10] came out at 2.78 h. In addition, the Tmax under setting [11] was 1.83 ± 1 h. In addition, the Tmax under setting [12] is 1.75 ± 1.04 h. Moreover, under setting [13], the time of peak concentration (Tmax) was 1.64 ± 1.18 h. Moreover, the half-life under setting [14] was 3.6 h. Further, the half-life under setting [15] was 2.95 ± 0.66 h. For the same molecule, the half-life under setting [16] is 4.25 ± 0.54 h. For the same molecule, the half-life under setting [17] was 4.54 ± 2.41 h. Moreover, the half-life under setting [18] was 3.47 ± 0.86 h.
On to `CCCCCc1cc(O)c2c(c1)OC(C)(C)[C@@H]1CCC(C)=C[C@@H]21` [THC, Δ^9-tetrahydrocannabinol], for which the “dose response of Cmax and AUC0-8 with increasing doses” value is given as “linear dose response relationship”. Also, where the note is “2.5 mg fed: single oral dose 2.5 mg THC/2.5 mg CBD 30 minutes after high fat meal (day 8)”, the AUC0-8 was 5.86 ± 2.07 (9) ng/mL*h. The “effect of high fat meal on Cmax and AUC0-8” value under setting [1] was “significantly increased”. Moreover, the Tmax under setting [2] was at least 1 h. This molecule also gave an AUC(0-t) under setting [3] of 2 ± 1.38 ng·h/mL. In addition, the AUC(0-t) under setting [4] amounted to 6.04 ± 2.07 ng·h/mL. Moreover, under setting [5], the AUC(0-t) worked out at 10.6 ± 3.84 ng·h/mL. Under setting [6], the Cmax amounted to 1.52 ± 0.55 ng/mL. Moreover, under setting [7], the Cmax came out at 0.83 ± 0.29 ng/mL. Under setting [8], this molecule yielded a Cmax of 2.56 ± 1.7 ng/mL. Further, under setting [9], the peak concentration (Cmax) came to 3.84 ± 1.62 ng/mL. Also, the Tmax under setting [10] came out at 2.78 ± 1.2 h. The Tmax under setting [11] was determined as 1.67 ± 1.09 h. Further, the Tmax under setting [12] was 2.06 ± 1.32 h. Also, under setting [13], the Tmax came to 1.36 ± 0.63 h. Under setting [14], this molecule showed a half-life of 2.5 h. The molecule also had a half-life under setting [15] of 2.63 ± 0.43 h. The molecule also had a half-life under setting [16] of 2.6 ± 0.53 h. Further, under setting [17], the half-life was 2.47 ± 0.88 h. The molecule further had a half-life under setting [18] of 2.41 ± 0.62 h.

One may read the Tmax as the time at which the peak concentration occurs. The term AUC(0-t) denotes exposure summed from dosing to a finite time, without extrapolation to infinity. Low readings indicate less exposure, high ones more exposure. A word on the Cmax: it is the maximum level reached in the sampled fluid or tissue. The term half-life denotes how long it takes for the measured level to halve. Lower therefore signals fast loss.

(Values after patent US20230218566A1, “Composition and Method for Treating Chronic Pain” (Zelira Therapeutics Operations Pty Ltd, priority 2020, published 2023).)
